Laboratory results as given in patent US4681871A, “Pharmacologically active peptides” (priority 1979, dated 1987).
Ends that are not written are not given here. Peptide text beside a SMILES is read from it.

Assays:
Pronase E (Merck) = assay: resistance against proteases (Pronase E incubation, then opiate test); type: in vitro ADME; conditions: 0.02 mg Pronase E, tris-buffer pH 8, 37° C., 1 to 4 hours; compared with control without enzyme
Description: As proof of the resistance against proteases we would like to cite an example: 0.3 mg β-casomorphin-7 was incubated in 0.6 ml tris-buffer pH 8 with 0.02 mg Pronase E (Merck) at 37° C. for 1 to 4 hours. After the end of the incubation, the mixture, for the purpose of destroying the Pronase, was heated at 95° C. for 15 minutes.

[1] = system: longitudinal muscle plexusmyentericus preparation of guinea pig ileum; assay: opiate-like activity on electrically stimulated guinea pig ileum preparation; type: cell-based; conditions: guinea pig intestine preparation; naloxon-reversible restriction of contractions

Molecule	loss of opiate activity after protease incubation (Pronase E (Merck))	opiate-like activity [1]
methionine-enkephalin [reference compound]	completely lost the opiate activity	
COC(=O)CNC(=O)[C@@H]1CCCN1C(=O)[C@H](Cc1ccccc1)NC(=O)[C@@H]1CCCN1C(=O)[C@@H](N)Cc1ccc(O)cc1 [Tyr-Pro-Phe-Pro-Gly-methyl ester] (H-YPFPG-OMe)		strong specific opiate-like activity
YPFPGPI [β-casomorphin-7, Tyr-Pro-Phe-Pro-Gly-Pro-Ile]	did not result in any loss of opiate activity	
COC(=O)CNC(=O)[C@@H]1CCCN1C(=O)[C@H](Cc1ccccc1)NC(=O)[C@@H]1CCCN1 [end product 4b, Pro-Phe-Pro-Gly-metester] (H-PFPG-OMe)		did not result in any opiate-like activity
casein		neither the casein itself nor its chloroform/methanol (65/35, vol/vol) extracts, shows a pharmacological, in this case an opiate-like, activity
